Assay results as given in patent publication US20230102554A1 (GB002, INC., priority 2019, published 2023).
pIC50: −log10 of the molar value.

Columns and labels:
[1] = target: T1, Human PDGFRα, cytoplasmic domain (GST-PDGFRα) (Homo sapiens, UniProt P16234); test: Human PDGFRα biochemical inhibition assay (off-chip Mobility Shift Assay)
T1 construct: made in house

[2] = target: T2, Human PDGFRβ, cytoplasmic domain (GST-PDGFRβ) (Homo sapiens, UniProt P09619); test: Human PDGFRβ biochemical inhibition assay (off-chip Mobility Shift Assay)
T2 construct: made in house
T2 sequence (P09619 with tags, fused parts or gaps): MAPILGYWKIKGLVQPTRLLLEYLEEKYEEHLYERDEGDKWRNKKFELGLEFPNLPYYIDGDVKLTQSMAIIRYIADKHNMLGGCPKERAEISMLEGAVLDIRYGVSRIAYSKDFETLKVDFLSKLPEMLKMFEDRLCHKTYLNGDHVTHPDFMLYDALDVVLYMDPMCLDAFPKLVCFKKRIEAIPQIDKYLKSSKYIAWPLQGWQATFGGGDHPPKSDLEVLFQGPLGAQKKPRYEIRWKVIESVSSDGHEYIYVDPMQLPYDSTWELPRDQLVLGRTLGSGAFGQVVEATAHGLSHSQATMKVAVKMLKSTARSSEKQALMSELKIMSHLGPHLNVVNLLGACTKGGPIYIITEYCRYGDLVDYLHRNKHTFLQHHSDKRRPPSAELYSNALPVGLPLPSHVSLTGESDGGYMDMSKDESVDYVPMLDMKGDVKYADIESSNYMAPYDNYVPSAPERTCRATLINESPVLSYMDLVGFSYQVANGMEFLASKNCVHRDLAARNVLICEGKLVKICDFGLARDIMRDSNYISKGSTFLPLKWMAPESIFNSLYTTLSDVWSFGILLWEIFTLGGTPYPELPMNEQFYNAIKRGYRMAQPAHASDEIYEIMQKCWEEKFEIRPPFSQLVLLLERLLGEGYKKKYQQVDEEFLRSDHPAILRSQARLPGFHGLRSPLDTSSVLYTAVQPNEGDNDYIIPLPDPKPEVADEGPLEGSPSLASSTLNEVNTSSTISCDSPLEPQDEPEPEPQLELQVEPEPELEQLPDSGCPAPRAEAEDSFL
Method: Human PDGFRβ Biochemical Inhibition Assay
The compounds described herein were tested for the ability to inhibit activity of PDGFRβ which was achieved via use of an off-chip Mobility Shift Assay (MSA). Human PDGFRβ, cytoplasmic domain [557-1106 (end) amino acids of accession number NP_002600.1 (SEQ ID NO: 3)] was expressed as N-terminal GST-fusion protein (88 kDa) using baculovirus expression system (SEQ ID NO: 4). GST-PDGFRβ was purified by using glutathione sepharose chromatography. Test compounds were dissolved in and diluted with dimethylsulfoxide (DMSO) to achieve 1 mM concentration. Then the solution was further diluted 25-fold with assay buffer to make the final test compound solution. The reference compound, Staurosporine, used as the assay positive control was prepared similarly. The 4× compound solution/substrate (CSKtide, 1000 nM)/ATP (Km ATP)/Mg Metal (5 mM) was prepared with kit buffer (20 mM HEPES, 0.01% Triton X-100, 5 mM DTT, pH 7.5), and 2× kinase solution was prepared with assay buffer (20 mM HEPES, 0.01% Triton X-100, 1 mM DTT, pH 7.5). The 5 μL of 4× compound solution, […] of 4× Substrate/ATP/Metal solution, and […] of 2× kinase solution were mixed and incubated in a well of polypropylene 384 well microplate for 1 hour at room temperature. […] of Termination Buffer (QuickScout Screening Assist MSA; Carna Biosciences) was added to the well. The reaction mixture was applied to LabChip™ system (Perkin Elmer), and the product and substrate peptide peaks were separated and quantitated. The kinase reaction was evaluated by the product ratio calculated from peak heights of product(P) and substrate(S) peptides (P/(P+S)). The readout value of reaction control (complete reaction mixture) was set as a 0% inhibition, and the readout value of background (Enzyme(−)) was set as a 100% inhibition, then the percent inhibition of each test solution was calculated.
With respect to PDGFRβ activity: “+++” denotes an IC50 of less than 300 nM; “++” denotes an IC50 of from 300 nM to less than 1000 nM; and “+” denotes an IC50 of 1000 nM or more.

T1 sequence (P16234 550-1089 T674I): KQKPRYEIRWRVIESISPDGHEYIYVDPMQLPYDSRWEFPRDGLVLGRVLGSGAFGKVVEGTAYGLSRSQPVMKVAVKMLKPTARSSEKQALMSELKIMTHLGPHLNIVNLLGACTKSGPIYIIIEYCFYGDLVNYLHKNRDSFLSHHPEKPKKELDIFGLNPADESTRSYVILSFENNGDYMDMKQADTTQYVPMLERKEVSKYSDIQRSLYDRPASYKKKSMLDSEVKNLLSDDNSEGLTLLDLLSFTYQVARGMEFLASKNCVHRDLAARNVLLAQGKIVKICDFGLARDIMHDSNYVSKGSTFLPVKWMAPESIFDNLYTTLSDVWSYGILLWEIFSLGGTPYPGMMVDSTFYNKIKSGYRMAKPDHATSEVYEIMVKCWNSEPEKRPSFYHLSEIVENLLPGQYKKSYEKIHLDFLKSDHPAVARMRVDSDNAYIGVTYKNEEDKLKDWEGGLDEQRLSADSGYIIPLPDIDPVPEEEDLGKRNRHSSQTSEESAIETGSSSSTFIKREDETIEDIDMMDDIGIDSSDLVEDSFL

Row | SMILES | pIC50 [1] | pIC50 [2]
1 | Cc1cncc(C(=O)Nc2cccc([C@H](C)Nc3cnc4ccsc4n3)c2)c1 [Compound 607] | > 6.52 | > 6.52
2 | CCn1cc2ncc(N[C@@H](C)c3cccc(NC(=O)Cc4cc(C)c(C)cn4)c3)nc2n1 [Compound 693, (S)-2-(4,5-dimethylpyridin-2-yl)-N-(3-(1-((2-ethyl-2H-pyrazolo[3,4-b]pyrazin-6-yl)amino)ethyl)phenyl)acetamide] | > 6.52 | ≤ 6.00
3 | CCc1ccc(CC(=O)Nc2cccc([C@H](C)Nc3cnc4cn(CC)nc4n3)c2)nc1 [Compound 712, (S)-N-(3-(1-((2-ethyl-2H-pyrazolo[3,4-b]pyrazin-6-yl)amino)ethyl)phenyl)-2-(5-ethylpyridin-2-yl)acetamide] | > 6.52 | ≤ 6.00
4 | Cc1cncc(C(=O)Nc2cccc([C@H](C)Nc3cnc4ccn(CCO)c4n3)c2)c1 [Compound 83, (S)-N-(3-(1-((5-(2-hydroxyethyl)-5H-pyrrolo[2,3-6]pyrazin-3-yl)amino)ethyl)phenyl)-5-methylnicotinamide] | > 6.52 | ≤ 6.00
5 | C[C@H](Nc1cnc2cc(C(F)F)sc2n1)c1cc(NC(=O)c2ccc(C(F)(F)F)nc2)ccc1F [Compound 618, (S)-N-(3-(1-((6-(difluoromethyl)thieno[2,3-b]pyrazin-3-yl)amino)ethyl)-4-fluorophenyl)-6-(trifluoromethyl)nicotinamide] | > 6.52 | > 6.52
6 | CCn1cc2ncc(N[C@@H](C)c3cccc(NC(=O)Cc4cccc(C)c4)c3)nc2n1 [Compound 622, (S)-N-(3-(1-((2-ethyl-2H-pyrazolo[3,4-b]pyrazin-6-yl)amino)ethyl)phenyl)-2-(m-tolyl) acetamide] | > 6.52 | > 6.52
7 | CCNc1ncc(C(=O)Nc2cccc([C@H](C)Nc3cnc4cn(CC)nc4n3)c2)s1 [Compound 364, (S)-N-(3-(1-((2-ethyl-2H-pyrazolo[3,4-b]pyrazin-6-yl)amino)ethyl)phenyl)-2-(ethylamino)thiazole-5-carboxamide] | > 6.52 | 6.00 to 6.52
8 | C[C@H](Nc1cnc2cnn(C)c2n1)c1cccc(NC(=O)c2ccc(C(F)F)s2)c1 [Compound 134, (S)-5-(difluoromethyl)-N-(3-(1-((1-methyl-1H-pyrazolo[3,4-b]pyrazin-6-yl)amino)ethyl)phenyl)thiophene-2-carboxamide] | > 6.52 | > 6.52
9 | CCn1cc2ncc(N[C@@H](C)c3cc(NC(=O)Cc4ccc(F)c(C)n4)ccc3C)nc2n1 [Compound 675, (S)-N-(3-(1-((2-ethyl-2H-pyrazolo[3,4-b]pyrazin-6-yl)amino)ethyl)-4-methylphenyl)-2-(5-fluoro-6-methylpyridin-2-yl)acetamide] | > 6.52 | > 6.52
10 | CCn1cc2ncc(N[C@@H](C)c3cc(NC(=O)Cc4ccc(C(C)(C)O)cn4)ccc3F)nc2n1 [Compound 703, (S)-N-(3-(1-((2-ethyl-2H-pyrazolo[3,4-b]pyrazin-6-yl)amino)ethyl)-4-fluorophenyl)-2-(5-(2-hydroxypropan-2-yl)pyridin-2-yl)acetamide] | ≤ 6.00 | ≤ 6.00
11 | Cc1cncc(C(=O)Nc2cccc([C@H](C)Nc3cnc4ccc(C(F)(F)F)cc4n3)c2)c1 [Compound 34, (S)-5-methyl-N-(3-(1-((7-(trifluoromethyl)quinoxalin-2-yl)amino)ethyl)phenyl) nicotinamide] | > 6.52 | 6.00 to 6.52

The remaining lines, values ahead:

Row | pIC50 [1] | pIC50 [2] | SMILES
12 | > 6.52 | 6.00 to 6.52 | CCn1cc2ncc(N[C@@H](C)c3cccc(NC(=O)c4ccc(C(=O)N5CCN(C)CC5)c(Cl)c4)c3)nc2n1 [Compound 466, (S)-3-chloro-N-(3-(1-((2-ethyl-2H-pyrazolo[3,4-b]pyrazin-6-yl)amino)ethyl)phenyl)-4-(4-methylpiperazine-1-carbonyl) benzamide]
13 | > 6.52 | > 6.52 | CCn1cc(C(=O)Nc2cccc([C@H](C)Nc3cnc4[nH]nc(C)c4n3)c2)cn1 [Compound 545, (S)-1-ethyl-N-(3-(1-((3-methyl-1H-pyrazolo[3,4-b]pyrazin-5-yl)amino)ethyl)phenyl)-1H-pyrazole-4-carboxamide]
14 | > 6.52 | > 6.52 | CCn1cc2ncc(N[C@@H](C)c3cccc(NC(=O)c4cnc5c(c4)CCCO5)c3)nc2n1 [Compound 56, (S)-N-(3-(1-((2-ethyl-2H-pyrazolo[3,4-b]pyrazin-6-yl)amino)ethyl)phenyl)-3,4-dihydro-2H-pyrano[2,3-b] pyridine-6-carboxamide]
15 | > 6.52 | > 6.52 | CCn1cc2ncc(N[C@@H](C)c3cc(NC(=O)c4ccc(OC5CCN(C)CC5)c(Cl)c4)ccc3F)nc2n1 [Compound 430, (S)-3-chloro-N-(3-(1-((2-ethyl-2H-pyrazolo[3,4-b]pyrazin-6-yl)amino)ethyl)-4-fluorophenyl)-4-((1-methylpiperidin-4-yl)oxy)benzamide]
16 | > 6.52 | > 6.52 | CCn1cc2ncc(N[C@@H](C)c3cc(NC(=O)c4ccc(CN5CCCC5)c(C)c4)ccc3C)nc2n1 [Compound 522, (S)-N-(3-(1-((2-ethyl-2H-pyrazolo[3,4-b]pyrazin-6-yl)amino)ethyl)-4-methylphenyl)-3-methyl-4-(pyrrolidin-1-ylmethyl)benzamide]
17 | ≤ 6.00 | ≤ 6.00 | Cc1cncc(C(=O)Nc2cccc([C@H](C)Nc3cncc4c3cnn4C)c2)c1 [Compound 750, (S)-5-methyl-N-(3-(1-((1-methyl-1H-pyrazolo[3,4-c]pyridin-4-yl)amino)ethyl)phenyl)nicotinamide]
18 | > 6.52 | > 6.52 | Cc1cncc(C(=O)Nc2cccc([C@H](C)Nc3cnc4[nH]cc(-c5cnn(C)c5)c4n3)c2)c1 [Compound 563, (S)-5-methyl-N-(3-(1-((7-(1-methyl-H-pyrazol-4-yl)-5H-pyrrolo[2,3-b]pyrazin-2-yl)amino)ethyl)phenyl) nicotinamide]
19 | > 6.52 | > 6.52 | Cc1cncc(C(=O)Nc2cccc([C@H](C)Nc3cnc4[nH]c(-c5cnn(C)c5)nc4n3)c2)c1 [Compound 603, (S)-5-methyl-N-(3-(1-((2-(1-methyl-1H-pyrazol-4-yl)-1H-imidazo[4,5-b]pyrazin-5-yl)amino)ethyl)phenyl) nicotinamide]
20 | > 6.52 | > 6.52 | CCn1cc2ncc(N[C@@H](C)c3cc(NC(=O)Cc4ccc(C)c(C)n4)ccc3C)nc2n1 [Compound 717, (S)-2-(5,6-dimethylpyridin-2-yl)-N-(3-(1-((2-ethyl-2H-pyrazolo[3,4-b]pyrazin-6-yl)amino)ethyl)-4-methylphenyl) acetamide]
21 | 6.00 to 6.52 | ≤ 6.00 | CCn1cc2ncc(N[C@@H](C)c3cccc(NC(=O)Cc4ccc(C(C)C)cn4)c3)nc2n1 [Compound 709, (S)-N-(3-(1-((2-ethyl-2H-pyrazolo[3,4-b]pyrazin-6-yl)amino)ethyl)phenyl)-2-(5-isopropylpyridin-2-yl)acetamide]
22 | > 6.52 | > 6.52 | CCOCc1cncc(C(=O)Nc2cccc([C@H](C)Nc3cnc4cnn(C)c4n3)c2)c1 [Compound 230, (S)-5-(ethoxymethyl)-N-(3-(1-((1-methyl-1H-pyrazolo[3,4-b]pyrazin-6-yl)amino)ethyl)phenyl)nicotinamide]
23 | – | > 6.52 | CSc1cncc(C(=O)Nc2cccc([C@H](C)Nc3cnc4cnn(C)c4n3)c2)c1 [Compound 225]
